Consider 10 compounds from PubChem BioAssay (NCI).

Holding throughout (experiment): growth of human tumour cells (NCI), 48 h
The subject of experiment [1] is MALME-3M melanoma.
Experiment [2] deals with K-562 leukemia.
The subject of experiment [3] is HT29 colon.
Experiment [4] deals with T-47D breast.
Experiment [5] relates to SF-539 CNS.
In experiment [6] the test system is SF-268 CNS.
Experiment [7] concerns LOX IMVI melanoma.
Experiment [8] deals with HL-60(TB) leukemia.
Experiment [9] deals with NCI-H460 lung.
Experiment [10] relates to HCC-2998 colon.

The structures appear in SMILES notation.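 Cells were grown in 96-well plates and exposed to each compound for 48 hours at five concentrations; endpoints were interpolated linearly between bracketing concentrations, or set to the highest concentration if not reached. The concentration for 50% growth inhibition is given as GI50. TGI is the concentration that stops growth completely.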

In the case of `CN1CC(C(=O)NC2(C)OC3(O)C4CCCN4C(=O)C(Cc4ccccc4)N3C2=O)C=C2c3cccc4[nH]cc(c34)CC21` (centres undefined), the TGI in experiment [1] is 38.6 µM; in experiment [2], more than 100 µM; in experiment [3] it was 71.1 µM; in experiment [4], more than 100 µM; in experiment [5] it was 39 µM; in experiment [6], 29.6 µM. Further, the TGI in [7] is 35.9 µM; in [8], 39.1 µM.

For the compound `COc1cc(/C=C\c2cccnc2Nc2ccccc2)cc(OC)c1OC`, the GI50 is 15.3 µM in experiment [1]; 5.51 µM in [3]; 5.3 µM in [4]; 3.61 µM in [9]; 12.2 µM in experiment [5]; 7.74 µM in experiment [10]. The GI50 was 8.19 µM in experiment [6], 4.51 µM in experiment [7] and 8 µM in [8]. In addition, the TGI in [1] is 87.4 µM; in experiment [3] it was 98.3 µM; in experiment [4] it was 47.6 µM; in [9], 26.7 µM; in [5], more than 100 µM; in experiment [10], more than 100 µM. The TGI in experiment [6] was more than 100 µM; in [7] it was 24.6 µM; in experiment [8], 36.7 µM.

As for `CN1C(=O)C23CC4=CC=CC(O)C4N2C(=O)C1(CO)SS3` (centres undefined), the TGI was 0.449 µM in experiment [1]; 11.4 µM in [3]; 0.339 µM in experiment [4]; 0.801 µM in experiment [9]; 0.17 µM in experiment [5]; 0.351 µM in [10]. In addition, the TGI was found to be 0.489 µM in experiment [6] and 0.492 µM in experiment [7].

Take `OCCCCC#Cc1ccccc1C#Cc1cnccn1`: the GI50 was 47.9 µM in experiment [1]; 29.5 µM in experiment [2]; 27.6 µM in experiment [3]; 27.5 µM in experiment [4]; 27.4 µM in [9]; 53.8 µM in experiment [5]. In addition, the GI50 in [10] was 33 µM; in experiment [6], 32.4 µM; in [7], 32 µM. Further, the TGI in experiment [1] is more than 100 µM; in experiment [2], more than 100 µM; in experiment [3], more than 100 µM; in experiment [4] it was more than 100 µM; in [9] it was 96.9 µM; in [5], more than 100 µM. Moreover, the TGI in experiment [10], in experiment [6] and in experiment [7] was more than 100 µM throughout.

`COc1ccc(N=C2NN=C(c3c[nH]c4ccccc34)CS2)cc1OC`: the GI50 in experiment [1] is 15 µM; in experiment [2], 7.67 µM; in [3], 4.01 µM; in experiment [4] it was 5.04 µM; in experiment [9] it was 4.11 µM; in experiment [5] it was 8.25 µM. In addition, the GI50 in experiment [10] was 9.57 µM; in [6] it was 8.65 µM; in [7], 6.1 µM. Moreover, the TGI in [1] is more than 69.1 µM; in experiment [2] it was more than 100 µM; in experiment [3] it was more than 43.6 µM; in experiment [4], more than 73.3 µM; in experiment [9] it was more than 45.2 µM; in experiment [5] it was more than 100 µM. Besides, the TGI was more than 48.3 µM in [10], more than 100 µM in [6] and more than 100 µM in [7].

Consider `CCC1(N2C(=O)c3c(F)c(F)c(F)c(F)c3C2=O)C(=O)NC(=O)N(c2ccccc2)C1=O` (centres undefined), for which the GI50 in experiment [2] was 2.31 µM; in [3], 2.23 µM; in experiment [4] it was 2.2 µM; in [9], 3.22 µM; in experiment [5] it was 2.24 µM; in experiment [6], 3.66 µM. The figures for the GI50 in experiment [7] and in experiment [8] were 1.18 µM and 2.67 µM, respectively. Besides, the TGI in experiment [2] amounted to 5.23 µM; in [3], 4.89 µM; in [4] it was 4.72 µM; in experiment [9] it was 11.5 µM; in experiment [5] it was 4.33 µM; in experiment [6], 16 µM. The figures for the TGI in experiment [7] and in experiment [8] were 2.73 µM and 4.57 µM, respectively.

Take `O=c1c2cc(F)ccc2sc2c(NCCCN3CCCC3)nc3ccccc3c12`: the GI50 in experiment [1] is 1.77 µM; in [2] it was 2.06 µM; in [4], 3.89 µM; in [5], 1.69 µM; in experiment [10], 1.67 µM; in experiment [7], 1.73 µM. For the same compound, in experiment [8], the GI50 was 2.06 µM. For the same compound, the TGI amounted to 3.37 µM in [1]; 4.86 µM in [2]; 23.8 µM in experiment [4]; 3.19 µM in experiment [5]; 3.25 µM in [10]; 3.28 µM in experiment [7]. In experiment [8], this compound displayed a TGI of 4.58 µM.

Regarding `O=c1[nH]c(-c2ccccn2)nc2sc3c(c12)CCCCCC3`, the GI50 was 0.99 µM in experiment [2]; 7.69 µM in experiment [3]; 5.54 µM in experiment [4]; 1.91 µM in [9]; 7.84 µM in experiment [5]; 26.2 µM in experiment [10]. For the same compound, the values for the GI50 in experiment [6], in experiment [7] and in experiment [8] were 8.66 µM, 1.09 µM and 3.39 µM, respectively. Further, the TGI in experiment [2], in experiment [3], in experiment [4], in experiment [9], in experiment [5] and in experiment [10] was more than 100 µM in each case. For the same compound, the TGI in experiment [6], in experiment [7] and in experiment [8] was more than 100 µM throughout.

As to `O=C(Cc1nc2ccc([N+](=O)[O-])cc2[nH]c1=O)C(=O)Nc1cc(Cl)c(Cl)cc1Cl`, the TGI in experiment [1], in [3], in [4], in experiment [9], in experiment [5] and in experiment [10] was more than 100 µM each time. The TGI in [6] and in [7] was more than 100 µM each time.

For the compound `COCCCN1C(=O)C2c3[nH]c4ccccc4c3C3CCC(C(C)(C)C)CC3C2C1=O` (centres undefined), the TGI in experiment [2] is more than 10 µM; in [3], 34 µM; in experiment [4], more than 100 µM; in experiment [9], 36.2 µM; in [5], 70.2 µM; in [10], 54.6 µM. The TGI in experiment [6] was more than 100 µM; in [8], 54.5 µM.
